# According to ChEMBL document CHEMBL4418297, “2,5,6,7-tetrasubstituted thiazolo[4,5-b]pyridine derivatives and use thereof” (2018):
# System: Mus musculus
# Assay: Antiinflammatory activity in iv dosed ICR mouse model of CLP-induced sepsis assessed as increase in survival rate
# Assay type: functional
row,SMILES,Survival [%]
1,CCCNc1nc2nc3c(c(-c4ccc(OC)cc4)c2s1)CCCC3,40
2,O=[N+]([O-])c1ccc(-c2c3c(nc4nc(N5CCCC5)sc24)CCCC3)cc1,40
3,CCCNc1nc2nc3c(c(-c4ccc(OC)cc4)c2s1)CCCCC3,40
4,CCCNc1nc2nc3c(c(-c4ccccc4)c2s1)CCCCC3,40
